The text below walks through data of publication PMC10354432, “Preparation of caffeic acid grafted chitosan self-assembled micelles to enhance oral bioavailability and antibacterial activity of quercetin” (Frontiers in Veterinary Science, 2023).

In data set [1] the test system is Escherichia coli of chicken origin. Nature of the data set: MIC and MBC, micro broth twofold dilution. Type of data set: cell-based. Here is the method:
(§1) We selected Escherichia coli CMCC44102 and Escherichia coli of chicken origin as experimental strains to determine their Minimum Inhibitory Concentration (MIC) and Minimum Bactericidal Concentration (MBC). The culture medium was configured and autoclaved, and the bacteria were cultured. The bacterial broth of the logarithmic growth period was diluted by micro broth twofold dilution method, 100 μL broth was added to each well of a sterile 96-well plate, and then 100 μL of prepared drug solution was added to the first well respectively, mixed well, and then diluted in multiples until the last well was mixed and 100 μL of the mixture was discarded. Each well was added with 100 μL of the prepared bacterial diluent, and a positive control (with bacteria and no drug) and a negative control (without bacteria and no drug) were set up. […] The tritriazolium chloride (TTC) method was used to determine the MIC results. 5 g/L TTC was added to each well of the 96-well plate after incubation for 1 h at 37°C, and the MIC was determined as the lowest antibacterial drug concentration in the wells with bacterial growth and the wells without bacterial growth. 100 μL of the liquid from each well clarified in the above test group was spread on solid, and the lowest drug concentration for no colony growth was its MBC. Agar plate experiments were also performed using the Oxford cup method, using CA-g-CS/QR with QR aqueous solution and maintaining the same concentration, sterile water group and CA-g-CS group were set, and three parallel experiments were performed to further confirm the antibacterial activity of the compounds.

The subject of data set [2] is Escherichia coli CMCC44102. Nature of the data set: MIC and MBC, micro broth twofold dilution. The format is cell-based. The protocol:
as §1

Data set [3] is described as follows: Stability of QR in white broiler plasma. The format is in vitro ADME. Here is the method:
Precision and accuracy were assessed by running the standards (n = 6) for 1 day and three consecutive days for three levels of concentration (10.0, 100.0, and 500.0 ng/ml) at low, medium, and high. The stability of QR in the samples was also investigated by sampling and analyzing the three levels of spiked plasma at −20°C for 1 week and 4°C for 24 h.

Data set [4] can be described thus: In vivo pharmacokinetics in white-finned broiler chickens. Conditions: Chinese white-finned broiler, po, i.g., 36 mg/kg. The source says:
The experimental procedures were reviewed and approved by the Institutional Animal Care and Use Committee of Hebei Agricultural University and carried out in accordance with the Guidelines for the Care and Use of Laboratory Animals of China. In this study, 12 healthy 30 days old Chinese white-finned broilers were used for the trial. All broilers were reared from 1 day of age and were provided with adequate basal diets and water, which were formulated to meet or exceed the nutritional requirements of broilers. Room temperature was maintained at 35°C for the first 3 days, then decreased to 28–30°C for the next 2 weeks and 25°C for the rest of the period. Broilers were randomly divided into two treatment groups (six broilers per treatment, n = 6) before the experiment, fasted for 18 h, and watered ad libitum. The experiment was administered by instillation, and blood was collected under the wings during the experiment according to the time designed for the experiment, and the plasma was centrifuged and separated for storage in a refrigerator at −20°C for processing and analysis. At the end of the experiment, broilers were euthanized.
The Waters Acquity UPLC H-Class system (Waters, Milford, MA, USA) includes a four-stage solvent manager, an autosampler set at 4°C and a Waters Acquity UPLC Shield RP18 column (100 × 2.1 mm, 1.7 μm, Waters. Milford, MA, USA). The mobile phase was methanol-0.1% phosphate (72:28, v/v). Detection was performed by a photodiode array detector at 373 nm at a flow rate of 0.2 mL/min. This assay was developed for the determination of QR in blood plasma.
A 200μL aliquot of plasma was sequentially added 20μL of 40μg/mL kaempferol internal standard, 100 μL of 25% HCL and 2 mL of ethyl acetate vortexed for 2 min equally. This mixture was centrifuged at 5000 rpm for 10 min, and the supernatant was transferred into a centrifuge tube and then concentrated to dryness under nitrogen. The analytes were dissolved in 200 μL of methanol/0.1% phosphoric acid water (4:1, v/v).
White-finned broilers were randomly divided into two experimental groups, one for the QR solution group and the other for the CA-g-CS/QR group, with six replicates in each group. The CA-g-CS/QR solution and the original QR solution were prepared and administered to the chickens at a dose of 36 mg/kg, and blood was collected under the wings at 15, 30, 60, 120, 240, 360, 480, 720, 1440, and 2160 min after the administration, placed in sodium heparin anticoagulation tubes and centrifuged to separate the plasma.
Pharmacokinetic parameters were estimated by blood concentration-time curves from Phoenix WinNonlin software. The […] was used to calculate the terminal elimination half-life (t1/2, λz), the area under the blood concentration-time curve (AUC0 − t), terminal feed time (AUC0−∞), total clearance (CL), and volume of distribution (Vd, λz). The peak blood concentration (Cmax) and time to peak (Tmax) were read directly from the observed individual blood concentration-time data. For instillation administration, the relative bioavailability (F) was calculated using the AUC0−∞ of CA-g-CS/QR versus QR.

For data set [5] the following is noted: rats; cited from earlier work.
A short description of data set [6]: Particle size and morphology by transmission electron microscopy. Type of data set: physicochemical. The source says:
We evaluated the successful preparation of CA-g-CS by UV absorption and IR detection of CS, CA, and CA-g-CS and compared the solubility of CS as well as CA-g-CS in water. The morphology of CA-g-CS/QR and QR was characterized by transmission electron microscopy. CA-g-CS/QR and QR were dropped on clean copper grids, negatively stained with 2% phosphotungstic acid solution, and the water was evaporated in the air at room temperature. The samples were dried and placed under transmission electron microscopy to observe the morphology.

[7] abbreviates: no colony growth on solid medium.

Consider `O=c1c(O)c(-c2ccc(O)c(O)c2)oc2cc(O)cc(O)c12` [QR, Quercetin], for which the MIC (commonly the least concentration at which growth counts as inhibited) in data set [1] (24 h at 37°C, TTC method) is 0.0585 mol/L. In addition, the MBC (in general, the smallest concentration meeting the test's criterion for killing) in data set [1] (setting [7]) came to 0.117 mol/L. The MIC in data set [2] (24 h at 37°C, TTC method) stood at 0.013 mol/L. The MBC in data set [2] (setting [7]) is 0.026 mol/L. Moreover, in data set [3] (prepared plasma sample, 10 ng/mL, read-out: Remaining (%) in prepared plasma sample stored at 4°C for 24h), the fraction remaining at 24 h, 10 ng/mL amounted to 92.8 ± 2.94%. Moreover, in data set [3] (prepared plasma sample, 100 ng/mL, read-out: Remaining (%) in prepared plasma sample stored at 4°C for 24h), the fraction remaining at 24 h, 100 ng/mL came out at 97.2 ± 5.63%. The share remaining at 24 h, 500 ng/mL in data set [3] (prepared plasma sample, 500 ng/mL, read-out: Remaining (%) in prepared plasma sample stored at 4°C for 24h) was found to be 99.98 ± 0.45%. Also, in data set [3] (spiked plasma, 10 ng/mL, read-out: Remaining (%) in plasma stored at −20°C for 7 days), the fraction remaining at 168 h, 10 ng/mL stood at 96.6 ± 6.62%. Moreover, in data set [3] (spiked plasma, 100 ng/mL, read-out: Remaining (%) in plasma stored at −20°C for 7 days), the amount remaining at 168 h, 100 ng/mL is 103 ± 8.97%. The fraction remaining at 168 h, 500 ng/mL in data set [3] (spiked plasma, 500 ng/mL, read-out: Remaining (%) in plasma stored at −20°C for 7 days) is 93.5 ± 1.78%. In data set [4] (n = 6), the AUC(0-inf) – broadly, the area under the concentration-time curve extrapolated to infinity – is 2840 ng·h/mL; the AUC(0-t) (usually the area under the concentration-time curve up to a stated or last time point) was 2760 ng·h/mL; the CL/F (in general, the apparent clearance, not corrected for the fraction that reaches the circulation) worked out at 219 ± 44.1 mL/min/kg; the Cmax (usually the highest concentration seen after dosing) came to 278 ± 18.5 ng/mL. Further, in data set [4] (n = 6), the Tmax (commonly the time at which the peak concentration occurs) is 2 h. The half-life in data set [4] (n = 6, read-out: T1/2, λz) amounted to 6.98 ± 0.704 h. Also, the Vd/F in data set [4] (n = 6, read-out: Vd, λz/F) turned out to be 132 ± 25.5 L/kg. In addition, the oral bioavailability in data set [5] is less than 17%. The particle size in data set [6] amounted to 1.5 ± 0.1 μm.
